# From PMC8911181, “A Novel CDK4/6 and PARP Dual Inhibitor ZC-22 Effectively Suppresses Tumor Growth and Improves the Response to Cisplatin Treatment in Breast and Ovarian Cancer” (International Journal of Molecular Sciences, 2022)
# Tested on: CDK4/6-mediated phosphorylation of Rb
# Assay: Western blot of p-Rb/Rb
# Format: cell-based, human
# Conditions: MDA-MB-231 (2 μM) and OVCAR5 (0.5 μM) cells, 24 h
# Protocol: Cells were washed with PBS, collected with scraper, and then lysed in RIPA buffer containing 1× protease and phosphatase inhibitors for 30 min on ice. The supernatants were collected by centrifugation at full speed for 10 min at 4 °C and subjected to SDS-PAGE followed by immunoblotting as described before. Signals were detected using enhanced chemiluminescence (Millipore, Burlington, MA, USA) and captured by the G: BOX Chemi XRQ gel doc System (Syngene, Cambridge, UK).
# Figure 3 ZC-22 inhibits CDK4/6 and PARP to induce cell-cycle arrest, DNA damage, and apoptosis in breast and ovarian cancer cells. (A,B) MDA-MB-231 cells were treated with 2 μM LY2835219 (LY-2) or ZC-22. […] The levels of CDK4/6 and p-Rb/Rb were determined by Western blot (A). Cell-cycle distribution was analyzed by flow cytometry (B). […] (D,E) Representative pictures (left) and quantification of percentage (right) of γH2A.X-positive cells in MDA-MB-231 cells treated with 2 μM OLA or ZC-22 for 24 h (D), or OVCAR5 cells treated with 0.5 μM OLA or ZC-22 for 24 h (E). Values are means ± SD, n = 3. * p < 0.05, ** p < 0.01, and *** p < 0.001 for comparisons with the DMSO-treated group. p value was calculated using an unpaired t-test. […] Values are means ± SD, n = 3. * p < 0.05, ** p < 0.01, and *** p < 0.001 vs. the DMSO-treated group. p value was calculated using an unpaired t-test. […]
row,Structure (SMILES),inhibitory activity on CDK4/6-mediated phosphorylation of Rb
1,"CCN1CCN(Cc2ccc(Nc3ncc(F)c(-c4cc(F)c5nc(C)n(C(C)C)c5c4)n3)nc2)CC1 [LY2835219, Abemaciclib, reference compound]",equal inhibitory activity
2,"Cc1nc2c(F)cc(-c3nc(Nc4ccc(N5CCN(C(=O)c6cc(Cc7n[nH]c(=O)c8ccccc78)ccc6F)CC5)cn4)ncc3F)cc2n1C(C)C [ZC-22, 4-(4-fluoro-3-(4-(6-((5-fluoro-4-(4-fluoro-1-isopropyl-2-methyl-1H-benzo[d]imidazole-6-yl)pyrimidin-2-yl)amino)pyridin-3-yl)piperazine-1-carbonyl)benzyl)phthalazin-1(2H)-one]",equal inhibitory activity
